The test system of data set [1] is mouse. The data set is described as follows: traction test (neuroleptic activity). In kind it is in vivo. To be noted: ip, 25 min, I.P., 25 minutes after intraperitoneal administration, read-out: DE50 Traction Test. How it is done: a. The traction test which consists of suspending a mouse by his front paws from a metal wire stretched horizontally. […] The test was run 25 minutes after intraperitoneal administration of the test product to determine the DE50 dose at which 50% of the animals effected recovering in less than 5 seconds.

Data set [2] relates to mouse. The data set is described as follows: chimney test (neuroleptic activity). As to conditions: ip, 25 min, I.P., 25 minutes after intraperitoneal administration, read-out: DE50 Chimney Test. The format is in vivo. How it is done: (§1) b. The chimney test which consists of placing a mouse in the extreme end of a glass tube 30 cm long and with a diameter adapted to the size of the animal. This tube is straightened vertically in a rapid motion and the animal with its head down mounts normally the length of the tube in less than 30 seconds. The test was effected 25 minutes after intraperitoneal administration of the test compounds to determine the DE50 dose which is the dose at which 50% of the animals effected a mounting in less than 30 seconds.

Data set [3] can be described thus: acute toxicity (DL50). As to conditions: mouse, in vivo, ip; I.P.; mice; mortality recorded 48 hours after administration. How it is done:
The different products were tested for the dose which would kill 50% of mice when administered intraperitoneally (DL50).

In data set [4] the test system is dogs. The data set is described as follows: anti-emetic activity test vis-a-vis apomorphine hydrochloride. As to conditions: Canis lupus familiaris, ip, read-out: DE50 Test of Anti-emetic Activity. The format is in vivo, dog. How it is done: (§2) The neuroleptic activity of the compounds of Examples 1 to 8 were determined in the following 4 tests and the results are reported in Table I:
(§3) d. The anti-emetic activity test which is determined on dogs vis-a-vis a subcutaneous injection of 0.1 mg/kg of apomorphine hydrochloride to determine the DE50 dose which is that dose which reduces 50% of the number of vomitings provoked by the injection of apomorphine hydrochloride.

Data set [5] concerns young rat. Description: cataleptic activity test. As to conditions: ip, I.P., dose provoking catalepsy in 50% of the animals, read-out: DE50 Test of Cataleptic Activity. The format is in vivo. The text has this:
c. […] The DE50 dose is that dose provoking catalepsy in 50% of the animals after administration of the product.

Data set [6] is described as follows: neuroleptic activity, overall (4 tests of Table I). In kind it is in vivo. To be noted: summary of Table I. How it is done: as §2
a. The traction test which consists of suspending a mouse by his front paws from a metal wire stretched horizontally. In a time less than 5 seconds, the normal animal effected recovering by managing to bring one of the rear paws to the wire. The test was run 25 minutes after intraperitoneal administration of the test product to determine the DE50 dose at which 50% of the animals effected recovering in less than 5 seconds.
as §1
c. The cataleptic activity test using the technique of Boissier et al [Therapie, Vol. 18 (1963), p. 1257-1277] with a young rat having slightly twisted homolaterally paws and noting the intensity of catalepsy. The DE50 dose is that dose provoking catalepsy in 50% of the animals after administration of the product.
as §3

Where [7] appears, read: I.P., dogs, subcutaneous 0.1 mg/kg apomorphine hydrochloride, 50% reduction of vomitings.

Where a name gives a salt, the structure may show the parent alone. Read-outs that look alike come from different tables or passages of the source.

As a reminder, the LD50 is the dose expected to kill half of the subjects tested. A higher LD50 goes with a less toxic substance.

On to `COc1ccc2c(C3CCN(CCCC(=O)c4ccc(F)cc4)CC3)c(C)[nH]c2c1` [Example 5, p-fluoro-ω-[4'-(2"-methyl-6"-methoxy-3"-indolyl)-piperidino]butyrophenone], for which the ED50 in data set [1] amounted to 3.8 mg/kg; in data set [2] it was 0.3 mg/kg; in data set [4] (setting [7]), 0.0045 mg/kg; in data set [5], 3.5 mg/kg. Besides, the LD50 at 48 h in data set [3] came out at 600 mg/kg. In data set [6], the “neuroleptic activity (in words)” value is “very interesting neuroleptic activity”.

Turning to `O=C(CCN1CCC(c2c[nH]c3ccccc23)CC1)c1ccc(F)cc1` [Example 8, hydrochloride], the values for the ED50 in data set [1] and in data set [2] were 2.5 mg/kg and 2.7 mg/kg, respectively. Also, in data set [3], the LD50 at 48 h was found to be 600 mg/kg.

`COc1ccc2c(C3CCN(CCCC(=O)c4ccc(F)cc4)CC3)c[nH]c2c1` [Example 3, p-fluoro-ω-[4'-(6"-methoxy-3"-indolyl)-piperidino]-butyrophenone hydrochloride]: the ED50 in data set [1] amounted to 1.2 mg/kg; in data set [2], 0.9 mg/kg; in data set [4] (setting [7]), 0.01 mg/kg; in data set [5] it was 2 mg/kg. Also, the LD50 at 48 h in data set [3] was 190 mg/kg. Also, in data set [6], the “neuroleptic activity (in words)” value is given as “very interesting neuroleptic activity”.

In data set [3], `O=C(CCCN1CCC(c2c[nH]c3ccccc23)CC1)c1ccc(Br)cc1` [Example 6, p-bromo-ω-[4'-(3"-indolyl)-piperidino]-butyrophenone hydrochloride] showed an LD50 at 48 h of 300 mg/kg.

As for `O=C(CCCN1CCC(c2c[nH]c3ccccc23)CC1)c1ccccc1` [Example 7, ω-[4'-(3'-indolyl)-piperidino]-butyrophenone hydrochloride], the ED50 worked out at 7 mg/kg in data set [1], 4 mg/kg in data set [2], 0.06 mg/kg in data set [4] (setting [7]) and 11 mg/kg in data set [5]. The molecule further came in with an LD50 at 48 h in data set [3] of 300 mg/kg.

Turning to `Cn1cc(C2CCN(CCCC(=O)c3ccc(F)cc3)CC2)c2ccccc21` [Example 2, p-fluoro-ω-[4'-(1"-methyl-3"-indolyl)-piperidino]-butyrophenone hydrochloride], the ED50 in data set [1] turned out to be 5.2 mg/kg; in data set [2] it was 4.5 mg/kg; in data set [4], 0.2 mg/kg; in data set [5], 12 mg/kg. In addition, the LD50 at 48 h in data set [3] was determined as 185 mg/kg.

Take `COc1ccc2[nH]cc(C3CCN(CCCC(=O)c4ccc(F)cc4)CC3)c2c1` [Example 4, p-fluoro-ω-[4'-(5"-methoxy-3"-indolyl)-piperidino]-butyrophenone hydrochloride]: the ED50 in data set [1] was 1 mg/kg; in data set [2], 0.2 mg/kg; in data set [4] (setting [7]), less than 0.3 mg/kg; in data set [5] it was 6 mg/kg. The same molecule showed an LD50 at 48 h in data set [3] of 300 mg/kg. The “neuroleptic activity (in words)” value in data set [6] was “very interesting neuroleptic activity”.

Take `O=C(CCCN1CCC(c2c[nH]c3ccccc23)CC1)c1ccc(F)cc1` [Example 1, p-fluoro-ω-[4'-(3"-indolyl)-piperidino]-butyrophenone hydrochloride]: the ED50 amounted to 2.2 mg/kg in data set [1], 1.6 mg/kg in data set [2], 0.02 mg/kg in data set [4] (setting [7]) and 8.5 mg/kg in data set [5]. In data set [3], this molecule yielded an LD50 at 48 h of 100 mg/kg. Also, the “neuroleptic activity (in words)” value in data set [6] was “very interesting neuroleptic activity”.

The values above are taken from patent US3947578A, “Omega-[4-(3"-indolyl)-piperidino]-alkyl-arylketones as nevroleptics” (Roussel Uclaf, priority 1972, dated 1976).
